pIC50: −log10 of the molar value.
What was measured:
mTOR [1] = biological target: T1, mTOR (Homo sapiens, UniProt P42345); assay: In Vitro mTOR Kinase Assay (Echo), Test (a)(ii); assay type: biochemical; conditions: table of enzyme assay Test (a)(ii); read-out: Test (a)(ii) IC50
T1 construct: FLAG; made in house
In short: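 Inhibition of truncated mTOR (1362-2549, FLAG-tagged, purified from stably transfected HEK293 cells) is measured as reduced AlphaScreen signal from a phospho-T389-recognising antibody bound to the biotinylated peptide product. Kinase incubation lasts 2 hours at room temperature. Potency is given as IC50.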

mTOR [2] = biological target: T1, mTOR; assay: mTOR Kinase Assay (Echo); assay type: biochemical

T1 sequence (P42345 1362-2549): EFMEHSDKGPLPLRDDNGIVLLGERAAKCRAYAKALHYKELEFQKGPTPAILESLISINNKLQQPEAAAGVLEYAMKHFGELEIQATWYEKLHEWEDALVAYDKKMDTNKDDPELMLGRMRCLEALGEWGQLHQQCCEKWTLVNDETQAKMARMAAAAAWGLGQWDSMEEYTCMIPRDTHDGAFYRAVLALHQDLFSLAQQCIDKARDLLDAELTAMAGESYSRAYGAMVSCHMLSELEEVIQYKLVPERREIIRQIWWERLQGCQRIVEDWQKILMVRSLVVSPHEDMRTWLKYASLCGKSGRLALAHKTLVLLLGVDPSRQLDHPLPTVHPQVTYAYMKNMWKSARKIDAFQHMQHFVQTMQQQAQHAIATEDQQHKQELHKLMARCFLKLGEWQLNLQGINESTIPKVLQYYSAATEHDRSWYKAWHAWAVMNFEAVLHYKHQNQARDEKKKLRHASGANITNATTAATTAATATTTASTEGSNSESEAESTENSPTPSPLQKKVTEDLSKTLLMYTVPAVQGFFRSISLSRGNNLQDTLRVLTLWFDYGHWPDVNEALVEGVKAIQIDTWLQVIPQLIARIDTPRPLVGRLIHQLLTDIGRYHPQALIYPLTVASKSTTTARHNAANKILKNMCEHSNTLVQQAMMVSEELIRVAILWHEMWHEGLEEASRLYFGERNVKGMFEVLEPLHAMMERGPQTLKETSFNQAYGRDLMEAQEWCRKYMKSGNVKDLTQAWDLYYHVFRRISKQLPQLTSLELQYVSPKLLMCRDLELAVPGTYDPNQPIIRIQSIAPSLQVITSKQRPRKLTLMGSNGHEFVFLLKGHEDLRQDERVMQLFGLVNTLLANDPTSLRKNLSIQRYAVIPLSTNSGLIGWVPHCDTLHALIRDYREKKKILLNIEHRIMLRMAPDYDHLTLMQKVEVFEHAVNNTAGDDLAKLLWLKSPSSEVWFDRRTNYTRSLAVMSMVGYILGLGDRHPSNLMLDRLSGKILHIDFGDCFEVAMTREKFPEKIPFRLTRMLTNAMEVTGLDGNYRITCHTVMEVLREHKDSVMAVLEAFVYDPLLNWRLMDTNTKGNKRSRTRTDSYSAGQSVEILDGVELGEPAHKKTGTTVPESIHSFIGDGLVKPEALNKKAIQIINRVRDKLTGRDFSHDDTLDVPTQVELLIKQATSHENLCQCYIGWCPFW

SMILES | pIC50 (mTOR [1]) | pIC50 (mTOR [2])
O=C(Nc1ccc(-c2nc(N3CCOCC3)cc(C3(S(=O)(=O)C4CC4)CC3)n2)cc1)NC1CCC1 [Example 13c, 3-cyclobutyl-1-[4-[4-(1-cyclopropylsulfonylcyclopropyl)-6-morpholin-4-ylpyrimidin-2-yl]phenyl]urea] | 8.76 | 8.62
C[C@H]1COCCN1c1cc(C2(S(=O)(=O)C(C)(C)C)CC2)nc(-c2ccc(NC(=O)NC3CCC3)cc2)n1 [Example 18a, 1-[4-[4-(1-tert-butylsulfonylcyclopropyl)-6-[(3S)-3-methylmorpholin-4-yl]pyrimidin-2-yl]phenyl]-3-cyclobutylurea] | 8.15 | 8.01
C[C@H]1COCCN1c1cc(C2(S(=O)(=O)c3ccc(Cl)cc3)CC2)nc(-c2ccc(NC(=O)NCCN(C)C)cc2)n1 [Example 27g, 1-[4-[4-[1-(4-chlorophenyl)sulfonylcyclopropyl]-6-[(3S)-3-methylmorpholin-4-yl]pyrimidin-2-yl]phenyl]-3-(2-dimethylaminoethyl)urea] | 7.67 | 7.72
C[C@H]1COCCN1c1cc(C2(S(=O)(=O)c3ccccn3)CC2)nc(-c2ccc(NC(=O)NC3CC3)cc2)n1 [Example 28, 3-Cyclopropyl-1-[4-[4-[(3S)-3-methylmorpholin-4-yl]-6-(1-pyridin-2-ylsulfonylcyclopropyl)pyrimidin-2-yl]phenyl]urea] | 8.73 | 9.09
C[C@H]1COCCN1c1cc(C2(S(=O)(=O)c3ccccn3)CCC2)nc(-c2ccc(NC(=O)Nc3cnn(C)c3)cc2)n1 [Example 36aj, 1-[4-[4-[(3S)-3-methylmorpholin-4-yl]-6-(1-pyridin-2-ylsulfonylcyclobutyl)pyrimidin-2-yl]phenyl]-3-(1-methylpyrazol-4-yl)urea] | 8.59 | 8.59
O=C(Nc1ccc(-c2nc(N3CCOCC3)cc(C3(S(=O)(=O)c4ccc(F)cc4)CC3)n2)cc1)NC1CC1 [Example 36al, 3-cyclopropyl-1-[4-[4-[1-(4-fluorophenyl)sulfonylcyclopropyl]-6-morpholin-4-ylpyrimidin-2-yl]phenyl]urea] | 7.79 | 7.73
N#CCCNC(=O)Nc1ccc(-c2nc(N3CCOCC3)cc(C3(S(=O)(=O)c4ccc(F)cc4)CC3)n2)cc1 [Example 36am, 3-(2-cyanoethyl)-1-[4-[4-[1-(4-fluorophenyl)sulfonylcyclopropyl]-6-morpholin-4-ylpyrimidin-2-yl]phenyl]urea] | 7.59 | 7.56
C[C@H]1COCCN1c1cc(C2(S(C)(=O)=O)CC2)nc(-c2ccc(NC(=O)Nc3ncco3)cc2)n1 [Example 36ba, 1-[4-[4-[(3S)-3-methylmorpholin-4-yl]-6-(1-methylsulfonylcyclopropyl)pyri-midin-2-yl]phenyl]-3-(1,3-oxazol-2-yl)urea] | 8.78 | 8.51
C[C@H]1COCCN1c1cc(C2(S(C)(=O)=O)CC2)nc(-c2ccc(NC(=O)NCCCO)cc2)n1 [Example 36bb, 3-(3-hydroxypropyl)-1-[4-[4-[(3S)-3-methylmorpholin-4-yl]-6-(1-methylsulfonylcyclopropyl)pyri-midin-2-yl]phenyl]urea] | 8.29 | 7.69
C[C@H]1COCCN1c1cc(C2(S(=O)(=O)c3ccccc3)CC2)nc(-c2ccc(NC(=O)NC3CC3)cc2)n1 [Example 36bc, 1-[4-[4-[1-(benzenesulfonyl)cyclopropyl]-6-[(3S)-3-methylmorpholin-4-yl]pyrimidin-2-yl]phenyl]-3-cyclopropylurea] | 8.55 | 8.69
CCNC(=O)Nc1ccc(-c2nc(N3CCOC[C@@H]3C)cc(C3(S(=O)(=O)c4ccccc4)CC3)n2)cc1 [Example 36bg, 3-[4-[4-[1-(benzenesulfonyl)cyclopropyl]-6-[(3S)-3-methylmorpholin-4-yl]pyrimidin-2-yl]phenyl]-1-ethylurea] | 8.72 | 9.04
C[C@H]1COCCN1c1cc(C2(S(=O)(=O)c3ccccc3)CC2)nc(-c2ccc(NC(=O)NCCCO)cc2)n1 [Example 36bl, 1-[4-[4-[1-(benzenesulfonyl)cyclopropyl]-6-[(3S)-3-methylmorpholin-4-yl]pyrimidin-2-yl]phenyl]-3-(3-hydroxypropyl)urea] | 8.48 | 8.68
C[C@H]1COCCN1c1cc(C2(S(=O)(=O)c3ccccc3)CCC2)nc(-c2ccc(NC(=O)NC3CC3)cc2)n1 [Example 36bs, 1-[4-[4-[1-(benzenesulfonyl)cyclobutyl]-6-[(3S)-3-methylmorpholin-4-yl]pyrimidin-2-yl]phenyl]-3-cyclopropylurea] | 8.58 | 8.79
C[C@H]1COCCN1c1cc(C2(S(=O)(=O)c3ccccc3)CCC2)nc(-c2ccc(NC(=O)NCCO)cc2)n1 [Example 36bt, 1-[4-[4-[1-(benzenesulfonyl)cyclobutyl]-6-[(3S)-3-methylmorpholin-4-yl]pyrimidin-2-yl]phenyl]-3-(2-hydroxyethyl)urea] | 8.73 | 8.98
C[C@H]1COCCN1c1cc(C2(S(=O)(=O)c3ccccn3)CC2)nc(-c2ccc(NC(=O)NC3(CO)CC3)cc2)n1 [Example 36cv, 3-[1-(hydroxymethyl)cyclopropyl]-1-[4-[4-[(3S)-3-methylmorpholin-4-yl]-6-(1-pyridin-2-ylsulfonylcyclopropyl)pyrimidin-2-yl]phenyl]urea] | – | 6.59
C[C@H]1COCCN1c1cc(C2(S(=O)(=O)CCCO)CCC2)nc(-c2ccc(NC(=S)NCCCO)cc2)n1 [Example 99i, 3-(3-hydroxypropyl)-1-[4-[4-[1-(3-hydroxypropylsulfonyl)cyclobutyl]-6-[(3S)-3-methylmorpholin-4-yl]pyrimidin-2-yl]phenyl]thiourea] | 7.23 | –
C[C@H]1COCCN1c1cc(C2(S(=O)(=O)CCCO)CC2)nc(-c2ccc(NC(=S)NCC(F)F)cc2)n1 [Example 99j, 3-(2,2-difluoroethyl)-1-[4-[4-[1-(3-hydroxypropylsulfonyl)cyclopropyl]-6-[(3S)-3-methylmorpholin-4-yl]pyrimidin-2-yl]phenyl]thiourea] | 7.91 | –

Continued, values first:

pIC50 (mTOR [1]) | pIC50 (mTOR [2]) | SMILES
8.82 | 8.80 | Cc1csc(S(=O)(=O)C2(c3cc(N4CCOC[C@@H]4C)nc(-c4ccc(NC(=O)NC(C)C)cc4)n3)CC2)n1 [Example 25d, 1-[4-[4-[(3S)-3-methylmorpholin-4-yl]-6-[1-[(4-methyl-1,3-thiazol-2-yl)sulfonyl]cyclopropyl]pyrimidin-2-yl]phenyl]-3-propan-2-ylurea]
8.84 | 8.92 | Cc1csc(S(=O)(=O)C2(c3cc(N4CCOC[C@@H]4C)nc(-c4ccc(NC(=O)NCCO)cc4)n3)CC2)n1 [Example 25g, 3-(2-hydroxyethyl)-1-[4-[4-[(3S)-3-methylmorpholin-4-yl]-6-[1-[(4-methyl-1,3-thiazol-2-yl)sulfonyl]cyclopropyl]pyrimidin-2-yl]phenyl]urea]
8.95 | 8.84 | C[C@H]1COCCN1c1cc(C2(S(=O)(=O)c3ccc(Cl)cc3)CC2)nc(-c2ccc(NC(=O)NC3CC3)cc2)n1 [Example 27, 1-[4-[4-[1-(4-Chlorophenyl)sulfonylcyclopropyl]-6-[(3S)-3-methylmorpholin-4-yl]pyrimidin-2-yl]phenyl]-3-cyclopropylurea]
9.45 | 9.14 | CNC(=O)Nc1ccc(-c2nc(N3CCOC[C@@H]3C)cc(C3(S(=O)(=O)c4ccc(Cl)cc4)CC3)n2)cc1 [Example 27e, 1-[4-[4-[1-(4-chlorophenyl)sulfonylcyclopropyl]-6-[(3S)-3-methylmorpholin-4-yl]pyrimidin-2-yl]phenyl]-3-methylurea]
9.00 | 9.02 | CCNC(=O)Nc1ccc(-c2nc(N3CCOC[C@@H]3C)cc(C3(S(=O)(=O)c4ccc(Cl)cc4)CC3)n2)cc1 [Example 27f, 3-[4-[4-[1-(4-chlorophenyl)sulfonylcyclopropyl]-6-[(3S)-3-methylmorpholin-4-yl]pyrimidin-2-yl]phenyl]-1-ethylurea]
9.61 | 10.07 | C[C@H]1COCCN1c1cc(C2(S(=O)(=O)c3ccc(Cl)cc3)CC2)nc(-c2ccc(NC(=O)NCCO)cc2)n1 [Example 27h, 1-[4-[4-[1-(4-chlorophenyl)sulfonylcyclopropyl]-6-[(3S)-3-methylmorpholin-4-yl]pyrimidin-2-yl]phenyl]-3-(2-hydroxyethyl)urea]
8.93 | 7.93 | C[C@H]1COCCN1c1cc(C2(S(=O)(=O)c3ccccn3)CC2)nc(-c2ccc(NC(=O)NCCO)cc2)n1 [Example 28g, 3-(2-hydroxyethyl)-1-[4-[4-[(3S)-3-methylmorpholin-4-yl]-6-(1-pyridin-2-ylsulfonylcyclopropyl)pyrimidin-2-yl]phenyl]urea]
8.98 | 8.83 | Cc1cnc(NC(=O)Nc2ccc(-c3nc(N4CCOC[C@@H]4C)cc(C4(S(C)(=O)=O)CC4)n3)cc2)cn1 [Example 36az, 3-[4-[4-[(3S)-3-methylmorpholin-4-yl]-6-(1-methylsulfonylcyclopropyl)pyri-midin-2-yl]phenyl]-1-(5-methylpyrazin-2-yl)urea]
8.86 | 8.92 | C[C@H]1COCCN1c1cc(C2(S(=O)(=O)c3ccccc3)CC2)nc(-c2ccc(NC(=O)NCCO)cc2)n1 [Example 36bh, 1-[4-[4-[1-(benzenesulfonyl)cyclopropyl]-6-[(3S)-3-methylmorpholin-4-yl]pyrimidin-2-yl]phenyl]-3-(2-hydroxyethyl)urea]
8.97 | 9.21 | CNC(=O)Nc1ccc(-c2nc(N3CCOC[C@@H]3C)cc(C3(S(=O)(=O)c4ccccc4)CC3)n2)cc1 [Example 36bj, 1-[4-[4-[1-(benzenesulfonyl)cyclopropyl]-6-[(3S)-3-methylmorpholin-4-yl]pyrimidin-2-yl]phenyl]-3-methylurea]

From patent US20090018134A1, “Compounds - 945” (AstraZeneca AB, priority 2007, published 2009)
